The values that follow come from patent publication US9770026B2, “Substituted pyrimidine compound and uses thereof” (Shenyang Sinochem Agrochemicals R&D Co., Ltd., priority 2012, dated 2017).

For one experiment, the system named is wheat powdery mildew. Description: protectant activity in vivo against wheat powdery mildew.
In the next experiment the test system is armyworm. In words: bioactivity test against armyworm, airbrush spray. The note with it: for pest or weed control at 600 ppm: 72 h; for pest or weed control at 600 ppm / control (test results against armyworm): mortality after 72 h. The format is in vivo.
Another experiment deals with Diamond back moth. Description: insecticidal activity against diamond back moth, airbrush spray. The class given is in vivo. In outline:
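Airbrush leaf-disc spray test: both faces of 2 cm cabbage discs received 0.5 ml of test solution at 0.7 kg/cm^2. Solutions were made in acetone:methanol (1:1) and brought to concentration with 0.1% Tween 80 in water. Ten second-instar larvae per disc, triplicates, were held at 25° C and 60˜70% R.H., with mortality recorded at 72 hrs.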

In a further experiment the test system is carmine spider mite. In words: bioactivity test against carmine spider mite, airbrush spray. The format is in vivo. In outline: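 Broadbean seedlings infested with adult mites were sprayed with compound (acetone/methanol stock diluted in 0.1% Tween 80 water) by airbrush at 0.7 kg/cm^2, 0.5 ml. Three replicates were run. Mortality was scored after 72 hrs.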

The test system of the next experiment is corn rust. In words: protectant activity in vivo against corn rust.
For experiment [1], the system named is Green peach aphids (Myzus Persicae Sulzer). Description: bioactivity test against green peach aphid, airbrush foliar spray. The class given is in vivo. The method in brief:
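Aphids (15-30 per cabbage leaf disc) on moist filter paper were airbrush-sprayed at 10 psi, 0.5 mL, with compound from acetone:methanol (1:1) diluted in water with 0.1% tween 80. Held at 25±1 C, 60±5% RH; survivors counted after 48 hrs to give death rates.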

Where [2] appears, read: 600 ppm, mortality after 72 hrs.
[3] abbreviates: 100 ppm, mortality after 72 hrs.
Setting [4] is: 10 ppm, death rate after 48 hrs.
[5] abbreviates: 100 ppm, death rate after 48 hrs.
Where [6] appears, read: 600 ppm, death rate after 48 hrs.
Setting [7] is: Myzus persicae, foliar, 48 h, 2.5 mg/L, contrastive test, read-out: Insecticidal activity against peach aphid (%).
Where [8] appears, read: Myzus persicae, foliar, 48 h, 5 mg/L, contrastive test, read-out: Insecticidal activity against peach aphid (%).
Where [9] appears, read: Myzus persicae, foliar, 48 h, 10 mg/L, contrastive test, read-out: Insecticidal activity against peach aphid (%).
[10] abbreviates: Myzus persicae, foliar, 48 h, 100 mg/L, contrastive test, read-out: Insecticidal activity against peach aphid (%).
[11] abbreviates: Myzus persicae, foliar, 48 h, 600 mg/L, contrastive test, read-out: Insecticidal activity against peach aphid (%).
Where [12] appears, read: 2.5 ppm, death rate after 48 hrs.

For the molecule `Cc1ncnc(NCCc2ccc(Oc3ccc(C(F)(F)F)cn3)cc2)c1Cl` [Compound I-6731], the “protectant activity against wheat powdery mildew in vivo” value in the experiment on wheat powdery mildew (400 ppm) was found to be 100%. Moreover, the pest or weed control at 600 ppm with armyworm (600 ppm) came out at 100%. For the same molecule, in the experiment on Diamond back moth (setting [2]), the “control (test results against diamond back moth)” value is recorded as 100%. The “control against carmine spider mite” value in the experiment on carmine spider mite (setting [3]) and in the experiment on carmine spider mite (setting [2]) was 100% in each case. Further, the “protectant activity against corn rust in vivo” value in the experiment with corn rust (100 ppm) and in the experiment on corn rust (400 ppm) was 100% throughout. Also, the “Insecticidal activity against peach aphid (%)” value in experiment [1] (1.25 mg/L, contrastive test) amounted to 60%. In addition, the “control (test results against green peach aphid)” value in experiment [1] (5 ppm, death rate after 48 hrs) turned out to be 100%; in experiment [1] (setting [4]), 100%; in experiment [1] (setting [5]) it was 100%; in experiment [1] (setting [6]), 100%. The pest or weed control at 2.5 µg/mL in experiment [1] (setting [7]) came out at 93%. Also, the pest or weed control at 5 µg/mL in experiment [1] (setting [8]) was 100%. Besides, in experiment [1] (setting [9]), the pest or weed control at 10 µg/mL is 100%. Further, the pest or weed control at 100 µg/mL in experiment [1] (setting [10]) worked out at 100%. The pest or weed control at 600 µg/mL in experiment [1] (setting [11]) was 100%.
Regarding `Cc1ncnc(NCCc2ccc(Oc3ccc(C(F)(F)F)cn3)cc2)c1Cl` [Compound I-6733], the “protectant activity against wheat powdery mildew in vivo” value in the experiment on wheat powdery mildew (400 ppm) stood at 100%. The “control (test results against armyworm)” value in the experiment on armyworm (600 ppm) was found to be 100%. Also, the figures for the “Insecticidal activity against diamond back moth (%)” value with Diamond back moth (10 mg/L), in the experiment with Diamond back moth (100 mg/L) and in the experiment with Diamond back moth (600 mg/L) were 40%, 68% and 100%, respectively. Also, the “control (test results against diamond back moth)” value in the experiment with Diamond back moth (setting [2]) is on record as 100%. The “control against carmine spider mite” value in the experiment on carmine spider mite (setting [3]) and in the experiment on carmine spider mite (setting [2]) was 100% in each case. Moreover, the “protectant activity against corn rust in vivo” value in the experiment with corn rust (100 ppm) and in the experiment on corn rust (400 ppm) was 100% each time. For the same molecule, the “control (test results against green peach aphid)” value in experiment [1] (setting [4]), in experiment [1] (setting [5]) and in experiment [1] (setting [6]) was 100% in each case.
On to `Cc1ncnc(NCCc2ccc(Oc3ccc(C(F)(F)F)cn3)cc2)c1Cl` [Compound I-6734], for which the “protectant activity against wheat powdery mildew in vivo” value in the experiment with wheat powdery mildew (400 ppm) was 100%. Moreover, the “control (test results against armyworm)” value in the experiment on armyworm (600 ppm) came out at 100%. For the same molecule, the “control (test results against diamond back moth)” value in the experiment on Diamond back moth (setting [2]) is listed as 100%. In the experiment with Diamond back moth (72 h, 10 mg/L), this molecule yielded a pest or weed control at 10 µg/mL of 40%. For the same molecule, the pest or weed control at 100 µg/mL in the experiment with Diamond back moth (72 h, 100 mg/L) stood at 52%. For the same molecule, the pest or weed control at 600 µg/mL in the experiment on Diamond back moth (72 h, 600 mg/L) amounted to 100%. Moreover, the “Insecticidal activity against carmine spider mite (% )” value (shortened to “Insecticidal activity … (% )”) worked out at 51% with carmine spider mite (2.5 mg/L); 57% in the experiment on carmine spider mite (5 mg/L); 82% in the experiment on carmine spider mite (10 mg/L, contrastive test); 100% with carmine spider mite (100 mg/L, contrastive test); 100% in the experiment with carmine spider mite (600 mg/L, contrastive test). The “control against carmine spider mite” value in the experiment on carmine spider mite (setting [3]) and in the experiment on carmine spider mite (setting [2]) was 100% throughout. In addition, the “protectant activity against corn rust in vivo” value in the experiment on corn rust (100 ppm) and in the experiment with corn rust (400 ppm) was 100% in each case. The “control (test results against green peach aphid)” value in experiment [1] (setting [4]), in experiment [1] (setting [5]) and in experiment [1] (setting [6]) was 100% throughout.
Regarding `Cc1ncnc(NCCc2ccc(Oc3ccc(C(F)(F)F)cn3)cc2)c1Cl` [Compound I-6735], the “protectant activity against wheat powdery mildew in vivo” value with wheat powdery mildew (400 ppm) is listed as 100%. Further, the “control (test results against armyworm)” value in the experiment with armyworm (600 ppm) was 100%. Further, the “control (test results against diamond back moth)” value with Diamond back moth (setting [2]) was found to be 100%. Besides, the “control against carmine spider mite” value in the experiment on carmine spider mite (setting [3]) and with carmine spider mite (setting [2]) was 100% in each case. Besides, the “protectant activity against corn rust in vivo” value in the experiment with corn rust (100 ppm) and in the experiment on corn rust (400 ppm) was 100% throughout. Also, the “Insecticidal activity against peach aphid (%)” value in experiment [1] (1.25 mg/L, contrastive test) was 67%; in experiment [1] (2.5 mg/L, contrastive test), 80%; in experiment [1] (5 mg/L, contrastive test) it was 100%; in experiment [1] (10 mg/L, contrastive test), 100%; in experiment [1] (100 mg/L, contrastive test) it was 100%; in experiment [1] (600 mg/L, contrastive test) it was 100%. Besides, the “control (test results against green peach aphid)” value in experiment [1] (5 ppm, death rate after 48 hrs) turned out to be 100%; in experiment [1] (setting [4]), 100%; in experiment [1] (setting [5]) it was 100%; in experiment [1] (setting [6]) it was 100%.
On to `CCc1ncnc(NCCc2ccc(Oc3ccc(C(F)(F)F)cn3)cc2)c1Cl.Cl` [Compound I-6739], for which the “protectant activity against wheat powdery mildew in vivo” value in the experiment on wheat powdery mildew (25 ppm) came to 100%. The pest or weed control at 6.25 ppm in the experiment on wheat powdery mildew (Triticum aestivum, 168 h, read-out: protectant activity against wheat powdery mildew in vivo, 6.25 ppm) fell in the range of 80 to 99%. The pest or weed control at 100 ppm in the experiment on wheat powdery mildew (Triticum aestivum, 168 h, read-out: protectant activity against wheat powdery mildew in vivo, 100 ppm) was 100%; in the experiment on carmine spider mite (Tetranychus cinnabarinus, 72 h, 100 ppm, mortality after 72 hrs), 100%; in the experiment with corn rust (Zea mays, 168 h, read-out: protectant activity against corn rust in vivo, 100 ppm) it was 100%; in experiment [1] (Myzus persicae, foliar, 48 h, 100 ppm, death rate after 48 hrs), 100%. Besides, the pest or weed control at 400 ppm was found to be 100% in the experiment on wheat powdery mildew (Triticum aestivum, 168 h, read-out: protectant activity against wheat powdery mildew in vivo, 400 ppm) and 100% in the experiment on corn rust (Zea mays, 168 h, read-out: protectant activity against corn rust in vivo, 400 ppm). In the experiment with armyworm (100 ppm), the “control (test results against armyworm)” value amounted to 100%. In addition, the pest or weed control at 600 ppm in the experiment with armyworm (600 ppm) is 100%; in the experiment on Diamond back moth (72 h, 600 ppm, mortality after 72 hrs, read-out: control (test results against diamond back moth)), 100%; in the experiment with carmine spider mite (Tetranychus cinnabarinus, 72 h, 600 ppm, mortality after 72 hrs) it was 100%; in experiment [1] (Myzus persicae, foliar, 48 h, 600 ppm, death rate after 48 hrs), 100%. For the same molecule, in the experiment on Diamond back moth (setting [3]), the “control (test results against diamond back moth)” value was found to be 100%. Also, the “Insecticidal activity … (% )” value in the experiment with carmine spider mite (2.5 mg/L) was 76%; with carmine spider mite (5 mg/L), 93%; in the experiment on carmine spider mite (10 mg/L, contrastive test), 100%; in the experiment with carmine spider mite (100 mg/L, contrastive test), 100%; in the experiment on carmine spider mite (600 mg/L, contrastive test), 100%. Besides, the “control against carmine spider mite” value in the experiment on carmine spider mite (10 ppm, mortality after 72 hrs) amounted to 100%. The “control (test results against green peach aphid)” value in experiment [1] (setting [12]) amounted to 100%; in experiment [1] (5 ppm, death rate after 48 hrs), 100%. The pest or weed control at 1.25 µg/mL in experiment [1] (Myzus persicae, foliar, 48 h, 1.25 mg/L, contrastive test, read-out: Insecticidal activity against peach aphid (%)) was determined as 100%. Also, the pest or weed control at 2.5 µg/mL in experiment [1] (setting [7]) stood at 100%. In addition, the pest or weed control at 5 µg/mL in experiment [1] (setting [8]) worked out at 100%. In addition, the pest or weed control at 10 µg/mL in experiment [1] (setting [9]) turned out to be 100%. The pest or weed control at 100 µg/mL in experiment [1] (setting [10]) came out at 100%. Also, the pest or weed control at 600 µg/mL in experiment [1] (setting [11]) is 100%. The molecule further yielded a pest or weed control at 10 ppm in experiment [1] (Myzus persicae, foliar, 48 h, 10 ppm, death rate after 48 hrs) of 100%.
With `CCc1ncnc(NCCc2ccc(Oc3ccc(C(F)(F)F)cn3)cc2)c1Cl` [Compound I-6756], the “protectant activity against wheat powdery mildew in vivo” value with wheat powdery mildew (100 ppm) and with wheat powdery mildew (400 ppm) was 100% each time. In addition, the entries for the “Insecticidal activity against armyworm (%)” value in the experiment on armyworm (10 mg/L), in the experiment on armyworm (100 mg/L) and in the experiment with armyworm (600 mg/L) were 28%, 100% and 100%, respectively. Also, the “control (test results against armyworm)” value in the experiment on armyworm (100 ppm) and in the experiment with armyworm (600 ppm) was 100% each time. Moreover, the “control (test results against diamond back moth)” value with Diamond back moth (setting [3]) and with Diamond back moth (setting [2]) was 100% throughout. For the same molecule, the “Insecticidal activity … (% )” value with carmine spider mite (2.5 mg/L) turned out to be 71%; with carmine spider mite (5 mg/L) it was 88%; with carmine spider mite (10 mg/L, contrastive test), 100%; in the experiment with carmine spider mite (100 mg/L, contrastive test) it was 100%; in the experiment on carmine spider mite (600 mg/L, contrastive test), 100%. In addition, the “control against carmine spider mite” value amounted to 100% in the experiment with carmine spider mite (10 ppm, mortality after 72 hrs); 100% with carmine spider mite (setting [3]); 100% in the experiment with carmine spider mite (setting [2]). Also, the “protectant activity against corn rust in vivo” value in the experiment with corn rust (100 ppm) and in the experiment on corn rust (400 ppm) was 100% throughout. Further, the “Insecticidal activity against peach aphid (%)” value in experiment [1] (1.25 mg/L, contrastive test) was determined as 100%; in experiment [1] (2.5 mg/L, contrastive test) it was 100%; in experiment [1] (5 mg/L, contrastive test), 100%; in experiment [1] (10 mg/L, contrastive test) it was 100%; in experiment [1] (100 mg/L, contrastive test), 100%; in experiment [1] (600 mg/L, contrastive test), 100%. For the same molecule, the “control (test results against green peach aphid)” value in experiment [1] (setting [12]) was found to be 100%; in experiment [1] (5 ppm, death rate after 48 hrs) it was 100%; in experiment [1] (setting [4]), 100%; in experiment [1] (setting [5]), 100%; in experiment [1] (setting [6]), 100%.
